“Also recorded” adds a separate entry of the source.
Experiments:
[1] = tested on: PC12 cells; test: Neuron-like neurite extension on PC12 cells; format: cell-based, rat; conditions: morphological change observed microscopically one day after adding test compound
Excerpt: Neuron-like neurite extension effect of the compounds of this invention on PC12 cells
The effect of the compounds of the invention was examined by a modification of the method of Green et al., Ann. Rev. Neurosci., 3, 353, 1980, and evaluated in terms of morphological change of PC12 cells and a level of the change. That is, PC12 cells were inoculated on Dulbecco-modified Eagle's medium supplemented with 10% calf fetal serum and 10% equine serum in approximately 100,000 cells/ml. The cells were incubated at 37° C. overnight in 5% CO2 using collagen-coated 96 well multiplates. Morphological change of the cells was microscopically observed one day after the test compound was added to each well under this conditions.
The minimum effective dose (MED, g/ml) of each compound on PC12 cells that caused neuron-like neurite extension is shown in Table 2 below.

[2] = Solubility of NA32176A (physicochemical properties); conditions: qualitative, by solvent; listed as NA32176A
Excerpt: Physicochemical properties of the thus obtained physiologically active substance NA32176A are shown below.

[3] = tested on: PC 12 cells; conditions: qualitative, background art; cited from earlier work

Compound	Minimum effective dose (MED) to cause neuron-like neurite extension on PC12 cells [1] [µg/mL]	other results
2-methyl-4-oxo-4-phenyl-3-(1-piperazinyl)methylbutyric Acid [Compound 41F]	6.3	
3-{2-(acetylamino)ethylthio}methyl-4-(4-methylphenyl)-4-oxobutyric Acid [Compound 12D]	13	
4-(1-piperazinyl)methyl-5-oxo-5-phenylpentanoic Acid [Compound 42F]	1.6	
4-(4-methoxyphenyl)-4-oxo-3-(1-piperidyl)methylbutyric Acid [Compound 3F]	3.1	
4-(4-methylphenyl)-4-oxo-3-(1-piperidyl)methylbutyric Acid [Compound 2F]	3.1	
COC(=O)[C@@H]1CCC(=O)[C@H]1CSC[C@H](NC(C)=O)C(=O)N1CCCC1 (relative stereo) [Compound 5B, trans-2-[(2R)-{2-acetylamino-3-oxo-3-(1-pyrrolidinyl)}propylthio]methyl-3-methoxycarbonyl-1-cyclopentanone]	0.8	
COC(=O)[C@@H]1CCCN1C(=O)[C@H](CSC[C@@H]1C(=O)CC[C@H]1C(=O)O)NC(C)=O (relative stereo) [Compound 6B, trans-2-[(2R)-[2-acetylamino-3-{1-((2S)-2-methoxycarbonylpyrrolidinyl)}-3-oxo]propylthio]methyl-3-oxo-1-cyclopentanecarboxylic Acid]	1.6	
COC(=O)[C@@H]1CCN1C(=O)[C@H](CSC[C@@H]1C(=O)CC[C@H]1C(=O)O)NC(C)=O (relative stereo) [Compound 7B, trans-2-[(2R)-[2-acetylamino-3-{1-((2S)-2-methoxycarbonylazetidinyl)}-3-oxo]propylthio]methyl-3-oxo-1-cyclopentanecarboxylic Acid]	3.1	
CC(=O)NC(CCCCCCCCCCSC[C@@H]1C(=O)CC[C@H]1C(=O)O)C(=O)O (relative stereo) [Compound 9B, trans-2-[(11-acetylamino-11-carboxy)undecylthio]methyl-3-oxo-1-cyclopentanecarboxylic acid]	6.3	
CC(=O)N[C@@H](CSCC1CC(C(=O)O)CC1=O)C(=O)O (stereo partly drawn) [Compound 1A, 4-[(2R)-(2-acetylamino-2-carboxy)ethylthio]methyl-3-oxo-1-cyclopentanecarboxylic Acid]	3.2	
CC(=O)N[C@@H](CSC[C@@H]1C(=O)CC[C@H]1C(=O)O)C(=O)N1CCCC1 [Compound 1B, (1R,2S)-2-[(2R)-{2-acetylamino-3-oxo-3-(1-pyrrolidinyl)}propylthio]methyl-3-oxo-1-cyclopentanecarboxylic Acid]	3.2	
CC(C)(CO)C(O)C(=O)NCCC(=O)NCCSCC1C(=O)CCC1C(=O)O [Compound 1E, (1R,2S)-2-[N-(panthoyl- -alanylamido)ethylthio]methyl-3-oxo-1-cyclopentanecarboxylic Acid]		Solubility [2]: soluble in a lower alcohol, water or dimethylsulfoxide; also recorded: insoluble in hexane or petroleum ether
COC(=O)[C@H](CSCC1CC(C(=O)O)CC1=O)NC(C)=O (stereo partly drawn) [Compound 2A, 4-[(2R)-(2-acetylamino-2-methoxycarbonyl)ethylthio]methyl-3-oxo-1-cyclopentanecarboxylic Acid]	3.2	
CC(=O)N[C@@H](CSC[C@@H]1C(=O)CC[C@H]1C(=O)O)C(=O)N1CCOCC1 [Compound 2B, (1R,2S)-2-[(2R)-{2-acetylamino-3-(4-morpholinyl)-3-oxo}propylthio]methyl-3-oxo-1-cyclopentanecarboxylic Acid]	1.6	
CC(=O)N[C@@H](CSCC1=C[C@H](O)CC1=O)C(=O)O [Compound 2C, (4R)-2-[(2R)-(2-acetylamino-2-carboxy)ethylthio]methyl-4-hydroxy-2-cyclopenten-1-one]	6.3	
COC(=O)[C@H](CSCC1C(=O)c2ccccc2C1C(=O)O)NC(C)=O (stereo partly drawn) [Compound 6A, 2-((2R)-(2-acetylamino-2-methoxycarbonyl)ethylthio)methyl-3-oxo-1-indanecarboxylic Acid]	25	
CN1CCN(CC(CC(=O)O)C(=O)c2ccccc2)CC1 (stereo not shown) [Compound 6F, 3-{1-(4-methylpiperazinyl)}methyl-4-oxo-4-phenylbutyric acid]	3.1	
CC(=O)N[C@@H](CSCC(CC(=O)O)C(=O)c1ccccc1)C(=O)O (stereo partly drawn) [Compound 7D, 3-[(2R)-(2-acetylamino-2-carboxy)ethylthio]methyl-4-oxo-4-phenylbutyric Acid]	13	
COC(=O)[C@H](CSCC(CC(=O)O)C(=O)c1ccccc1)NC(C)=O (stereo partly drawn) [Compound 8D, 3-[(2R)-(2-acetylamino-2-methoxycarbonyl)ethylthio]methyl-4-oxo-4-phenylbutyric Acid]	6.3	
COC(=O)[C@H](CSCC(CC(=O)O)C(=O)c1ccc(OC)cc1)NC(C)=O (stereo partly drawn) [Compound 9D, 3-[(2R)-(2-acetylamino-2-methoxycarbonyl)ethylthio]methyl-4-(4-methoxyphenyl)-4-oxobutyric Acid]	50	
CC(=O)N[C@@H](CSC[C@@H]1C(=O)CC[C@H]1C(=O)O)C(=O)N1CCN(c2ccccc2)CC1 [Compound 13B, (1R,2S)-2-[(2R)-2-acetylamino-3-oxo-3-{1-(4-phenyl)piperazinyl}propylthio]methyl-3-oxo-1-cyclopentanecarboxylic Acid]	1.6	
COC(=O)[C@H](CSCC(CC(=O)O)C(=O)c1ccc(C)cc1)NC(C)=O (stereo partly drawn) [Compound 13D, 3-{(2R)-(2-acetylamino-2-methoxycarbonyl)ethylthio}methyl-4-(4-methylphenyl)-4-oxobutyric Acid]	13	
C[n+]1cccc(CCCSCC2C(=O)CCC2C(=O)O)c1.[I-] [Compound 15B, (1R,2S)-2-[3-{3-(1-methylpyridinium iodide)}propylthio]methyl-3-oxo-1-cyclopentanecarboxylic Acid]	3.1	
COC(=O)[C@H](CSCC(CC(=O)O)C(=O)c1cccnc1)NC(C)=O (stereo partly drawn) [Compound 32D, 3-[(2R)-(2-acetylamino-2-methoxycarbonyl)ethylthio]methyl-4-oxo-4-(3-pyridyl)butyric Acid]	3.1	
CC(=O)N[C@@H](CSCC(CCC(=O)O)C(=O)c1ccccc1)C(=O)O (stereo partly drawn) [Compound 38D, 4-[(2R)-{(2-acetylamino-2-carboxy)ethylthio}]methyl-5-oxo-5-phenylpentanoic acid]	6.3	
CN[C@@H]1C[C@H]2O[C@@](C)([C@@H]1OC)n1c3ccccc3c3c4c(c5c6ccccc6n2c5c31)C(=O)NC4 [staurosporin]		PC 12 cell differentiation promoting activity [3]: found to have the PC 12 cell differentiation promoting activity
(1R,2S)-2-[(2R)-({2-carboxy-2-pentafluoropropionylamino)ethylthio]methyl-3-oxo-1-cyclopentanecarboxylic acid [Compound 4B]	3.2	
trans-2-[(2R)-(2-carboxy-2-pentafluoropropionylamino)ethylthio]methyl-3-hydroxymethyl-1-cyclopentanone [Compound 8B]	0.8	
